Assay [1] addresses full-length human RORγt (Homo sapiens (Human), UniProt P51449). The assay is described as follows: RORγt (full-length human) reporter assay, conditions A or B, HEK293T cells. Format: cell-based. The settings on record: for IC50: RORγt (FL) Reporter Assay A or B, IC50, HEK293T cells. In outline:
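Dual-luciferase read-out was taken after an overnight (16–20 h) compound exposure. Firefly data were scaled between DMSO-only and saturating reference compound, Renilla-normalized, then plotted against concentration for IC50.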
In general terms: In a reporter assay the amount or activity of a reporter protein is the signal.

Assay [2] addresses human RORγt ligand binding domain (RORγt LBD) (Homo sapiens (Human), UniProt P51449). The assay is described as follows: RORγt ThermoFluor® assay (thermal shift binding). An outline of the steps:
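Thermal shift with 0.065 mg/mL RORγt LBD and 60 μM 1,8-ANS in 100 mM Hepes pH 7.0, 10 mM NaCl, 2.5 mM GSH, 0.002% Tween-20.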
In general terms: In DSF a fluorescence change marks the thermal transition of the protein.

The mark [3] stands for this setting: read-out: ThermoFluor® Assay, Kd.
The mark [4] stands for this setting: HEK-293T, read-out: RORγt (FL) Reporter Assay A or B, % inhibition.
The mark [5] stands for this setting: HEK-293T, 2 μM compound concentration, read-out: RORγt (FL) Reporter Assay A or B, % inhibition.

Structures can show the parent of a compound that is named as a salt. Where two headings read alike, the source gives them in different places.

Chain of full-length human RORγt (P51449 other isoform, or with tags, fused parts or gaps): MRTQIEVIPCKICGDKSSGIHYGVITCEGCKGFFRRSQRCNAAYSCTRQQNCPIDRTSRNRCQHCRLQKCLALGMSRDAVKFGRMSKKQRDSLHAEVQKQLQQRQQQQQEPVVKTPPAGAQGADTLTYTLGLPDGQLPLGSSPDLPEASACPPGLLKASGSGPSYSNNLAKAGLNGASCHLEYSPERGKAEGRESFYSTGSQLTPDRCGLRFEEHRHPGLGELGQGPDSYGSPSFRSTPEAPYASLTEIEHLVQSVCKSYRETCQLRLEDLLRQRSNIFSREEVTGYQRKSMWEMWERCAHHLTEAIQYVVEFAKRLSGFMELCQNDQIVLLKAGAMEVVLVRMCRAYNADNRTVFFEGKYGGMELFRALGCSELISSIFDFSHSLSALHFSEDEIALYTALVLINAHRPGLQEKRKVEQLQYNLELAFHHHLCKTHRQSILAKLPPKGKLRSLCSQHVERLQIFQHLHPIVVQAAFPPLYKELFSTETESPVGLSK
Chain of human RORγt ligand binding domain (RORγt LBD) (P51449 other isoform, or with tags, fused parts or gaps): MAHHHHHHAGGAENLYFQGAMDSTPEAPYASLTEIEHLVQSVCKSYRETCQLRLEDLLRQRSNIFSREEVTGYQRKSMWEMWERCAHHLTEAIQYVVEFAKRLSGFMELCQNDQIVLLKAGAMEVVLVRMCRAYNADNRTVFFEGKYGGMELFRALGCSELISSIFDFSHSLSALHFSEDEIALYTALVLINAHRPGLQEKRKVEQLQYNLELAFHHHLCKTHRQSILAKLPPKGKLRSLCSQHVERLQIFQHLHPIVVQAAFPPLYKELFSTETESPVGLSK

For orientation: inhibition means the drop in the measured response relative to a control, in per cent. By IC50 is commonly meant the concentration needed to halve the response being measured. The low end stands for higher potency, the high end for lower potency. For orientation: Kd means the free concentration of one partner at which half of the binding sites on the other are occupied at equilibrium, for simple one-to-one binding. For the compound `CCn1nc(C(=O)NC[C@H]2CC[C@H](S(C)(=O)=O)CC2)c(C)c1-c1ccc(CCC(F)(F)F)cc1OC(F)F` [Example 224, 5-(2-(Difluoromethoxy)-4-(3,3,3-trifluoropropyl)phenyl)-1-ethyl-4-methyl-N-(((1r,4r)-4-(methylsulfonyl)cyclohexyl)methyl)-1H-pyrazole-3-carboxamide], the inhibition at […] in assay [1] (HEK-293T, 0.11 μM compound concentration (footnote ********), read-out: RORγt (FL) Reporter Assay A or B, % inhibition) was 95%. For the same compound, the IC50 in assay [1] was determined as 0.44 nM. The Kd in assay [2] (setting [3]) came out at 2.4 nM.
Turning to `CCn1nc(C(=O)NC[C@H]2CC[C@H](S(C)(=O)=O)CC2)c(Cl)c1-c1ccc(CC(C(F)(F)F)C(F)(F)F)cc1OC` [Example 84, 4-Chloro-1-ethyl-5-(2-methoxy-4-(3,3,3-trifluoro-2-(trifluoromethyl)propyl)phenyl)-N-(((1r,4r)-4-(methylsulfonyl)cyclohexyl)methyl)-1H-pyrazole-3-carboxamide], the inhibition at 0.67 µM in assay [1] (setting [4]) was 87%. This compound gave a concentration for half-maximal inhibition (IC50) in assay [1] of 10 nM. The Kd in assay [2] (setting [3]) stood at 0.7 nM.
As for `CCn1nc(C(=O)NC[C@H]2CC[C@H](S(C)(=O)=O)CC2)c(C(C)C)c1-c1ccc(N[C@H](C)C(F)(F)F)cc1OC` [Example 131, 1-Ethyl-4-isopropyl-5-(2-methoxy-4-(((R)-1,1,1-trifluoropropan-2-yl)amino)phenyl)-N-(((1r,4R)-4-(methylsulfonyl)cyclohexyl)methyl)-1H-pyrazole-3-carboxamide], the inhibition at 2 µM in assay [1] (setting [5]) stood at 100%. Besides, in assay [1], inhibition was half-maximal at 140 nM (IC50). Also, in assay [2] (setting [3]), the dissociation constant Kd worked out at 33 nM.
For the compound `CCOc1cc(N[C@H](C)C(F)(F)F)ccc1-c1c(Cl)c(C(=O)NC[C@H]2CC[C@H](S(C)(=O)=O)CC2)nn1CC` [Example 205, 4-Chloro-5-(2-ethoxy-4-(((R)-1,1,1-trifluoropropan-2-yl)amino)phenyl)-1-ethyl-N-(((1r,4R)-4-(methylsulfonyl)cyclohexyl)methyl)-1H-pyrazole-3-carboxamide], the inhibition at 2 µM in assay [1] (setting [4]) came out at 104%. Moreover, half-maximal inhibition in assay [1] (IC50) was put at 29 nM. In addition, the dissociation constant (Kd) in assay [2] (setting [3]) came out at 5.4 nM.
On to `CCn1nc(C(=O)NC[C@H]2CC[C@H](S(C)(=O)=O)CC2)c(Cl)c1-c1ccc(CCC(C)C)cc1OC` [Example 74, 4-Chloro-1-ethyl-5-(4-isopentyl-2-methoxyphenyl)-N-(((1r,4r)-4-(methylsulfonyl)cyclohexyl)methyl)-1H-pyrazole-3-carboxamide], for which, in assay [1] (HEK-293T, 0.67 μM compound concentration (footnote ****), read-out: RORγt (FL) Reporter Assay A or B, % inhibition), the inhibition at 0.67 µM worked out at 50%. The compound further gave an IC50 in assay [1] of 38 nM. Further, the Kd in assay [2] (setting [3]) was 0.33 nM.
On to `CCn1nc(C(=O)NC[C@]2(O)CC[C@@H](S(C)(=O)=O)CC2)c(Cl)c1-c1ccc(CCC(F)(F)F)cc1Cl` [Example 173, 4-Chloro-5-(2-chloro-4-(3,3,3-trifluoropropyl)phenyl)-1-ethyl-N-(((1s,4s)-1-hydroxy-4-(methylsulfonyl)cyclohexyl)methyl)-1H-pyrazole-3-carboxamide], for which the inhibition at 0.67 µM in assay [1] (setting [4]) is 36%. For the same compound, the IC50 in assay [1] turned out to be 28 nM. For the same compound, the Kd in assay [2] (setting [3]) came to 12 nM.
As to `CCn1nc(C(=O)NC[C@H]2CC[C@H](S(C)(=O)=O)CC2)c(Cl)c1-c1ccc(CCC(F)(F)F)cc1F` [Example 179, 4-Chloro-1-ethyl-5-(2-fluoro-4-(3,3,3-trifluoropropyl)phenyl)-N-(((1r,4r)-4-(methylsulfonyl)cyclohexyl)methyl)-1H-pyrazole-3-carboxamide], the inhibition at 2 µM in assay [1] (setting [5]) was found to be 52%. This compound came in with an IC50 in assay [1] of 69 nM. The Kd in assay [2] (setting [3]) turned out to be 15 nM.
`COc1cc(N[C@H](C)C(F)(F)F)ccc1-c1c(Cl)c(C(=O)NC[C@H]2CC[C@H](S(C)(=O)=O)CC2)nn1CC(C)C` [Example 28, 4-Chloro-1-isobutyl-5-(2-methoxy-4-(((R)-1,1,1-trifluoropropan-2-yl)amino)phenyl)-N-(((1r,4R)-4-(methylsulfonyl)cyclohexyl)methyl)-1H-pyrazole-3-carboxamide]: the inhibition at 2 µM in assay [1] (setting [5]) came to 103%. In assay [1], this compound returned a 50% inhibitory concentration (IC50) of 23 nM. Also, the Kd in assay [2] (setting [3]) was determined as 2.5 nM.
In the case of `CCn1nc(C(=O)NC[C@]2(O)CC[C@@H](S(C)(=O)=O)CC2)c(Cl)c1-c1ccc(CC(C)(C)C(F)(F)F)cc1Cl` [Example 164, 4-Chloro-5-(2-chloro-4-(3,3,3-trifluoro-2,2-dimethylpropyl)phenyl)-1-ethyl-N-(((1s,4s)-1-hydroxy-4-(methylsulfonyl)cyclohexyl)methyl)-1H-pyrazole-3-carboxamide], in assay [1], the 50% inhibitory concentration (IC50) worked out at 6.6 nM. The Kd in assay [2] (setting [3]) came to 0.5 nM.
Consider `CCn1nc(C(=O)NC[C@]2(O)CC[C@@H](S(C)(=O)=O)CC2)c(Cl)c1-c1c(F)cc(C[C@@H](C)C(F)(F)F)cc1F` (single isomer, unassigned) [Example 199, 4-Chloro-5-(2,6-difluoro-4-((R*)-3,3,3-trifluoro-2-methylpropyl)phenyl)-1-ethyl-N-(((1s,4S)-1-hydroxy-4-(methylsulfonyl)cyclohexyl)methyl)-1H-pyrazole-3-carboxamide], for which the inhibition at 2 µM in assay [1] (setting [5]) was determined as 75%. In addition, in assay [1], half-maximal inhibition (IC50) required 58 nM. The Kd in assay [2] (ThermoFluor® Assay, Kd) worked out at 14 nM.
`CCn1nc(C(=O)NC[C@]2(O)CC[C@@H](S(C)(=O)=O)CC2)c(Cl)c1-c1ccc(C2(O)CCC(C(F)(F)F)CC2)cc1OC(F)F` (single isomer, unassigned) [Example 112, 4-Chloro-5-(2-(difluoromethoxy)-4-((1s*,4s*)-1-hydroxy-4-(trifluoromethyl)cyclohexyl)phenyl)-1-ethyl-N-(((1s,4s)-1-hydroxy-4-(methylsulfonyl)cyclohexyl)methyl)-1H-pyrazole-3-carboxamide]: in assay [1] (HEK-293T, 1 μM compound concentration (footnote ***), read-out: RORγt (FL) Reporter Assay A or B, % inhibition), the inhibition at 1 µM was found to be 44%. The compound also showed a concentration for half-maximal inhibition (IC50) in assay [1] greater than 1000 nM. Also, in assay [2] (ThermoFluor® Assay, Kd), the Kd came to 3000 nM.
In the case of `CCn1nc(C(=O)NC[C@H]2CC[C@H](S(C)(=O)=O)C[NH+]2CC(=O)ON)c(Cl)c1-c1ccc(CC(C)(C)C(F)(F)F)cc1OC(F)F` (stereo in doubt) [Example 64, N-(((2R*,5S*)-1-(2-(Aminooxy)-2-oxoethyl)-5-(methylsulfonyl)piperidin-2-yl)methyl)-4-chloro-5-(2-(difluoromethoxy)-4-(3,3,3-trifluoro-2,2-dimethylpropyl)phenyl)-1-ethyl-1H-pyrazole-3-carboxamide Trifluoroacetic Acid Salt], in assay [1] (HEK-293T, 3 μM compound concentration (footnote *), read-out: RORγt (FL) Reporter Assay A or B, % inhibition), the inhibition at 3 µM turned out to be 119%. This compound displayed an IC50 in assay [1] of 51 nM. The Kd in assay [2] (ThermoFluor® Assay, Kd) was 3.2 nM.
In assay [1], `Cn1nc(C(=O)NC[C@H]2CC[C@H](S(C)(=O)=O)CC2)c(Cl)c1-c1ccc(CC(C)(C)C(F)(F)F)cc1OC(F)F` [Example 155, 4-Chloro-5-(2-(difluoromethoxy)-4-(3,3,3-trifluoro-2,2-dimethylpropyl)phenyl)-1-methyl-N-(((1r,4r)-4-(methylsulfonyl)cyclohexyl)methyl)-1H-pyrazole-3-carboxamide] gave an IC50 of 4.2 nM. The Kd in assay [2] (setting [3]) is 0.33 nM.
Consider `CCn1nc(C(=O)NC[C@]2(O)CC[C@@H](S(C)(=O)=O)CC2)c(Cl)c1-c1ccc(CC(C)(C)C(F)(F)F)cc1C#N` [Example 88, 4-Chloro-5-(2-cyano-4-(3,3,3-trifluoro-2,2-dimethylpropyl)phenyl)-1-ethyl-N-(((1s,4s)-1-hydroxy-4-(methylsulfonyl)cyclohexyl)methyl)-1H-pyrazole-3-carboxamide], for which the inhibition at 3 µM in assay [1] (setting [4]) was found to be 88%. The IC50 in assay [1] stood at 130 nM. Moreover, in assay [2] (setting [3]), the Kd was determined as 15 nM.
